1 molecule from PMC9302014, “PEGylation improves the therapeutic potential of dimerized translationally controlled tumor protein blocking peptide in ovalbumin-induced mouse model of airway inflammation” (Drug Delivery, 2022) can be followed below.

Molecules are shown by their SMILES.

In this assay the test system is OVA-induced allergic airway inflammation. The assay is described as follows: Mouse model of OVA-induced allergic airway inflammation. The following applies: single 1 mg/kg intraperitoneal on day 32, n = 10-12. In kind it is in vivo. On the procedure: Sixty female BALB/c mice, 6–7 weeks of age, were randomly divided into five groups (12 mice per group) and intraperitoneally sensitized on days 1 and 14 with 50 μg OVA emulsified in 2 mg aluminum hydroxide in a total volume of 200 μl. The control group of naïve mice received the same volume of PBS for the duration of the experiment. Two weeks after the second sensitization, the animals were challenged with 200 μg of OVA through intranasal administration under light anesthesia on days 28, 30, 32, and 34. […]. On day 35, the mice were sacrificed and BALF, lung tissue, and serum were collected for further analysis.
Mice were anesthetized, and the trachea was excised, and cannulated with a polyethylene tube. The lungs were lavaged with 0.8 ml of PBS four times, and 0.6 ml of BALF was obtained. The collected lavage fluid was cooled on ice and centrifuged at 1,000 rpm for 10 min at 4 °C. The supernatant was used for ELISA assays. The pellets were resuspended in 0.1 ml PBS, and the total inflammatory cell numbers were quantified using a Hemavet (Drew Scientific Inc., Oxford, CT).
After lavage, the right lung lobe was isolated and stored at −80 °C until required. The lung tissue was homogenized in 50 mM Tris-HCl buffer (pH 7.4) containing 150 mM NaCl, 1 mM EDTA, 0.25% deoxycholate, and a protease inhibitor (Sigma) using a tissuelyser II (Qiagen). The lung homogenates were centrifuged at 10,000 × g for 10 min, and the supernatants were collected and used for ELISA assay.
The left lung lobe was fixed in 4% formaldehyde, embedded in paraffin, and sectioned at a thickness of 4 μm. The sections were stained with hematoxylin and eosin (H&E) to detect infiltration of inflammatory cells and with periodic acid-Schiff (PAS) staining for the analysis of goblet cells hyperplasia/mucus production. The H&E stained sections were scored for the presence of inflammatory cells using the following scale: (0) = absent, (1) = rare, (2) = mild, (3) = moderate, (4) = severe. Scoring was performed by 6 observers in a blinded manner. Also, the area of H&E stained cells was quantified in the selected field, and the area of PAS-positive cells per bronchiole was expressed as the % of the total epithelial area using ImageJ software (National Institute of Health, Bethesda, MD).
Statistical analysis was performed using GRAPHPAD^TM PRISM version 8.0 for Windows (GraphPad Software, San Diego, CA). Statistical significance was determined using Student’s two-tailed unpaired t-test for comparisons between two groups. For more than 3 groups, a one-way analysis of variance (ANOVA) was followed by Tukey’s test. Error bars were expressed as the mean ± the standard error of the mean (SEM) of 10 to 12 mice per group. Significant differences between means were defined as p < 0.05.

`C[C@@H]1C[C@H]2[C@@H]3CCC4=CC(=O)C=C[C@]4(C)[C@@]3(F)[C@@H](O)C[C@]2(C)[C@@]1(O)C(=O)CO` [Dex, dexamethasone]: the “number of lymphocytes in BALF compared to the OVA group” value is given as “did not significantly suppress”, the “number of monocytes in BALF compared to the OVA group” value is “did not significantly suppress” and the “number of total cells (total leukocytes) in BALF compared to the OVA-challenged group” value is “no difference”. For the same molecule, under “ELISA”, the “levels of IL-4, IL-5, and IL-13 in lung homogenates increased by OVA challenge” value is “suppressed”.
